Where a SMILES comes first, the peptide text is derived from it. Bridges are numbered along the chain shown (N, C = ends). [ ]: non-standard residue; d: D form. The star is where a group is joined. Orn = NCCC[C@H](N)C(=O)O; Bn = c1ccc(C*)cc1
Legend:
[1] = Food intake and body weight change in rats; format: in vivo, rat; conditions: for decrease in food consumption compared to control: rats
Method: Change in food intake and body weight was evaluated for selected peptides administered by intravenous (IV) or subcutaneous injection routes. Male Sprague-Dawley rats were obtained from Hilltop Lab Animals, Inc. (Scottsdale, Pa.) or other vendors. Animals were individually housed in conventional polystyrene hanging cages and maintained on a controlled 12 hour on/off light cycle. Water and pelleted food was provided ad libitum. The rats were dosed IV with vehicle or selected peptides (0.3 to 1.0 mg/kg), or dosed subcutaneously with vehicle or selected peptides (doses up to 30 mg/kg). The changes in body weight and food intake for the 24 hour period after dosing was determined. The changes in body weight and food intake for the 48 hour and 72 hour periods after dosing can also be measured to determine reversal of changes in body weight and food intake effects back to baseline levels.

[2] = biological target: T1, hMC4-R (Homo sapiens, UniProt P32245); assay: Competitive binding assay using Eu-NDP-α-MSH, MC4-R
T1 construct: expressed in transfected cells; host or cells: HEK-293 (membrane homogenates)
T1 sequence (P32245 whole entry): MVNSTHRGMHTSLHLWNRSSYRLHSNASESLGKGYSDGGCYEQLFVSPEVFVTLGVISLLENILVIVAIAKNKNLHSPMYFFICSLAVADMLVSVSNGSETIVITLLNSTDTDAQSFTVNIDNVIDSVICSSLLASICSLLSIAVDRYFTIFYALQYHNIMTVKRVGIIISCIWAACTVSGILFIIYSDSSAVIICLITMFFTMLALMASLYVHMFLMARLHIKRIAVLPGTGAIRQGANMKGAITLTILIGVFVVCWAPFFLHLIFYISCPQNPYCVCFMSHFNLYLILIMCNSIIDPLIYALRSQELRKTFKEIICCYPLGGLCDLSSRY
Method: Competitive inhibition binding assays were performed using membrane homogenates prepared from HEK-293 cells that express recombinant hMC1-R, hMC3-R, hMC4-R, or hMC5-R. In the examples that follow, all MC1-R, MC3-R, MC4-R and MC5-R values are for human recombinant receptors. Assays were performed in 96 well GF/B Millipore multiscreen filtration plates (MAFB NOB10) pre-coated with 0.5% bovine serum albumin (Fraction V). Membrane homogenates were incubated with 0.1 nM [1^125]-NDP-α-MSH (Perkin Elmer) and increasing concentrations of test peptides of the present invention in buffer containing 25 mM HEPES buffer (pH 7.5) with 100 mM NaCl, 2 mM CaCl2, 2 mM MgCl2, 0.3 mM 1,10-phenanthroline, and 0.1% bovine serum albumin. After incubation for 90 minutes at 37° C., the assay mixture was filtered and the membranes washed with 1 mL of cold 1×PBS wash buffer per well. 35 μL of scintillation cocktail was added to each well and the plates counted on a Microbeta counter for 1 minute per well. Non-specific binding was measured by inhibition of binding of [I^125]-NDP-α-MSH in the presence of 1 μM NDP-α-MSH. Maximal specific binding (100%) was defined as the difference in radioactivity (cpm) bound to cell membranes in the absence and presence of 1 μM NDP-α-MSH. Radioactivity (cpm) obtained in the presence of test compounds was normalized with respect to 100% specific binding to determine the percent inhibition of [I^125]-NDP-α-MSH binding. Each assay was conducted in duplicate and actual mean values are described, with results less than 0% reported as 0%. Ki values for test peptides of the present invention were determined using Graph-Pad Prism® curve-fitting software.
Alternatively, a competitive inhibition binding assay was performed employing Eu-NDP-α-MSH (PerkinElmer Life Sciences catalog No. AD0225) with determination by time-resolved fluorometry (TRF) of the lanthanide chelate. In comparison studies with [I^125]-NDP-α-MSH, the same values, within experimental error ranges, were obtained for percent inhibition and Ki. Typically competition experiments to determine Ki values were conducted by incubating membrane homogenates prepared from HEK-293 cells that express recombinant hMC4-R with 9 different concentrations of test compounds of interest and 1 nM of Eu-NDP-α-MSH in a solution containing 25 mM HEPES buffer with 100 mM NaCl, 2 mM CaCl2, 2 mM MgCl2, 0.1% BSA, and 0.3 mM 1,10-phenanthroline. After incubation for 90 minutes at 37° C., the reaction was stopped by filtration over AcroWell 96-well filter plates (Pall Life Sciences). The filter plates were washed 4 times with 200 μL of ice-cold phosphate-buffered saline. DELFIA Enhancement solution (PerkinElmer Life Sciences) was added to each well. The plates were incubated on a shaker for 15 minutes and read at 340 nm excitation and 615 nm emission wavelengths. Each assay was conducted in duplicate and mean values were utilized. Ki values were determined by curve-fitting with Graph-Pad Prism® software using a one-site fixed-slope competition binding model.

[3] = Induction of penile erection in male rats; format: in vivo, rat; conditions: IV
Method: The ability of peptides of the present invention to induce penile erection (PE) in male rats were evaluated with selected peptides. Male Sprague-Dawley rats weighing 250-300 g were kept on a 12 hour on/off light cycle with food and water ad libitum. All behavioral studies were performed between 9 a.m. and 4 p.m. Groups of 6-8 rats were administered peptides at a variety of doses via an IV route. Immediately after treatment, rats were placed into individual polystyrene cages (27 cm long, 16 cm wide, and 25 cm high) for behavioral observation, typically by remote video monitoring. Rats are observed for one hour, and the number of yawns, grooming bouts and PEs are recorded in 10-minute bins.

[4] = biological target: T2, hMC1-R (Homo sapiens, UniProt Q01726); assay: Competitive binding assay, MC1-R; conditions: competitive studies using Eu-NDP-α-MSH / NDP-α-MSH
T2 construct: expressed in transfected cells; host or cells: HEK-293 (membrane homogenates)
T2 sequence (Q01726 whole entry): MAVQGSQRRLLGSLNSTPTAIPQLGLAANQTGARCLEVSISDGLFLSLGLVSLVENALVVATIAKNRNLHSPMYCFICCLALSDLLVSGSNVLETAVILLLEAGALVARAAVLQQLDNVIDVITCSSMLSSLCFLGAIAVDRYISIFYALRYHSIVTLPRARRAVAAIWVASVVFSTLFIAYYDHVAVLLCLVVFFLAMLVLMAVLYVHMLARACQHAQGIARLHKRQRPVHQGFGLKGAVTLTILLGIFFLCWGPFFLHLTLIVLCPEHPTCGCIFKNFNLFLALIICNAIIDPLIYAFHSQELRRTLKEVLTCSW
Method: Competitive inhibition binding assays were performed using membrane homogenates prepared from HEK-293 cells that express recombinant hMC1-R, hMC3-R, hMC4-R, or hMC5-R. In the examples that follow, all MC1-R, MC3-R, MC4-R and MC5-R values are for human recombinant receptors. Assays were performed in 96 well GF/B Millipore multiscreen filtration plates (MAFB NOB10) pre-coated with 0.5% bovine serum albumin (Fraction V). […] 35 μL of scintillation cocktail was added to each well and the plates counted on a Microbeta counter for 1 minute per well. […] Maximal specific binding (100%) was defined as the difference in radioactivity (cpm) bound to cell membranes in the absence and presence of 1 μM NDP-α-MSH. […] Ki values for test peptides of the present invention were determined using Graph-Pad Prism® curve-fitting software.
Alternatively, a competitive inhibition binding assay was performed employing Eu-NDP-α-MSH (PerkinElmer Life Sciences catalog No. AD0225) with determination by time-resolved fluorometry (TRF) of the lanthanide chelate. […] The plates were incubated on a shaker for 15 minutes and read at 340 nm excitation and 615 nm emission wavelengths. […] Ki values were determined by curve-fitting with Graph-Pad Prism® software using a one-site fixed-slope competition binding model.

[5] = rat feeding studies, overall finding in words

CC(=O)N[C@@H](CCCNC(=N)N)C(=O)N[C@H]1CCCNC(=O)CC[C@@H](C(=O)O)NC(=O)[C@H](Cc2c[nH]c3ccccc23)NC(=O)[C@H](CCCNC(=N)N)NC(=O)[C@@H](Cc2ccccc2)NC(=O)[C@H](COCc2ccccc2)NC1=O [Compound 7, Ac-Arg-cyclo(Orn-Ser(Bzl)-D-Phe-Arg-Trp-Glu)-OH] (Ac-R[Orn]S(Bn)[dF]RWE-OH; lactam 2-7)
food intake [1, 5]: reduce food intake
rate of change in body weight [1, 5]: decrease the rate of change in body weight
decrease in food consumption compared to control ([1]; 0.3 mg/kg, 0-2 hour period): statistically significant
decrease in food consumption compared to control ([1]; 0.3 mg/kg, 0-4 hour period): statistically significant
decrease in food consumption compared to control ([1]; 0.3 mg/kg, 0-20 hour period): statistically significant
decrease in food consumption compared to control ([1]; 1 mg/kg, 0-4 hour period): statistically significant
decrease in food consumption compared to control ([1]; 1 mg/kg, 0-20 hour period): statistically significant
decrease in food consumption compared to control ([1]; 1 mg/kg, 4-20 hour period): statistically significant
Ki ([2]; competitive studies using Eu-NDP-α-MSH / NDP-α-MSH, average of several studies, read-out: Ki value at MC4-R): 9 nM
selectivity for MC4-R (binding against MC1-R, MC3-R and MC4-R) ([2]; in words): highly selective for MC4-R
average spontaneous erections per rat in one hour ([3]; 1 mg/kg): 1.429±0.69 spontaneous erections per rat in one hour
increase in observed spontaneous erections ([3]; in words): not found to result in a statistically significant increase
Ki [4]: 2040 nM

Reference: patent publication US20090305960A1, “Melanocortin Receptor-Specific Peptides for Treatment of Obesity / 669” (Palatin Technologies, Inc, priority 2008, published 2009)
